This note sets out measurements from PubChem BioAssay (NCI).

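Tested at 5 concentrations; 48 h exposure; 96-well plates; endpoints linearly interpolated, else capped at highest concentration. The concentration for full growth arrest is given as TGI.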

Among the test systems are SK-MEL-5 melanoma; T-47D breast; OVCAR-4 ovarian; A549 NSCLC; DU-145 prostate; SK-MEL-2 melanoma; OVCAR-5 ovarian; SF-539 CNS; RPMI-8226 leukemia; PC-3 prostate; SW-620 colon; SNB-19 CNS; BT-549 breast; OVCAR-3 ovarian; SF-268 CNS; MALME-3M melanoma; CAKI-1 renal; NCI/ADR-RES ovarian; HS 578T breast; LOX IMVI melanoma.
What all share (test): growth of human tumour cells (NCI), 48 h

For the compound `CCN1C(=O)C(=Cc2ccc(-c3ccccc3)cc2)C(=O)N(CC)C1=S`, the TGI in the assay with SK-MEL-5 melanoma, in the assay with T-47D breast, in the assay with OVCAR-4 ovarian, in the assay with A549 NSCLC, with DU-145 prostate and in the assay with SK-MEL-2 melanoma was > 100 µM in each case. The TGI with OVCAR-5 ovarian, in the assay with SF-539 CNS, in the assay on RPMI-8226 leukemia, with PC-3 prostate, in the assay on SW-620 colon and in the assay on SNB-19 CNS was > 100 µM throughout. The TGI in the assay with BT-549 breast, with OVCAR-3 ovarian, in the assay with SF-268 CNS, with MALME-3M melanoma, in the assay with CAKI-1 renal and with NCI/ADR-RES ovarian was > 100 µM each time. Besides, the TGI in the assay with HS 578T breast and with LOX IMVI melanoma was > 100 µM in each case.
Regarding `N=c1oc2ccc(Cl)cc2cc1C(=O)Nc1ccccc1`, the TGI was > 100 µM in the assay on SK-MEL-5 melanoma; > 44.8 µM in the assay with T-47D breast; > 100 µM in the assay on OVCAR-4 ovarian; > 100 µM with A549 NSCLC; > 100 µM with DU-145 prostate; > 100 µM in the assay on SK-MEL-2 melanoma. The TGI in the assay on OVCAR-5 ovarian, in the assay with SF-539 CNS, in the assay on RPMI-8226 leukemia, in the assay with PC-3 prostate, with SW-620 colon and in the assay with SNB-19 CNS was > 100 µM in each case. For the same compound, the TGI with BT-549 breast, in the assay on OVCAR-3 ovarian, with SF-268 CNS, in the assay on MALME-3M melanoma, with CAKI-1 renal and in the assay with NCI/ADR-RES ovarian was > 100 µM in each case. Moreover, the TGI in the assay with HS 578T breast is > 59.6 µM; with LOX IMVI melanoma, > 100 µM.
`O=C(O)C/C(=C\c1ccccc1)C(=O)O`: the TGI with SK-MEL-5 melanoma, in the assay on T-47D breast, in the assay with OVCAR-4 ovarian, in the assay on A549 NSCLC, in the assay on DU-145 prostate and with SK-MEL-2 melanoma was > 100 µM in each case. Moreover, the TGI in the assay on OVCAR-5 ovarian, with SF-539 CNS, in the assay on RPMI-8226 leukemia, in the assay on PC-3 prostate, in the assay on SW-620 colon and with SNB-19 CNS was > 100 µM each time. Besides, the TGI in the assay with BT-549 breast, in the assay with OVCAR-3 ovarian, in the assay on SF-268 CNS, in the assay on MALME-3M melanoma, in the assay with CAKI-1 renal and in the assay with NCI/ADR-RES ovarian was > 100 µM each time. Further, the TGI with HS 578T breast and in the assay on LOX IMVI melanoma was > 100 µM in each case.
`Cc1cc(NS(=O)(=O)c2ccc(Nc3c4ccccc4nc4ccc(C(=O)Nc5ccc(S(=O)(=O)N=C(N)N)cc5)cc34)cc2)no1`: the TGI in the assay with SK-MEL-5 melanoma, in the assay on T-47D breast, in the assay with OVCAR-4 ovarian, in the assay on A549 NSCLC, in the assay with DU-145 prostate and in the assay with SK-MEL-2 melanoma was > 100 µM throughout. In addition, the TGI in the assay with OVCAR-5 ovarian, in the assay on SF-539 CNS, with RPMI-8226 leukemia, with PC-3 prostate, in the assay with SW-620 colon and with SNB-19 CNS was > 100 µM in each case. The TGI with BT-549 breast, in the assay on OVCAR-3 ovarian, in the assay on SF-268 CNS, in the assay with MALME-3M melanoma, in the assay on CAKI-1 renal and with NCI/ADR-RES ovarian was > 100 µM in each case. Moreover, the TGI with HS 578T breast and in the assay with LOX IMVI melanoma was > 100 µM throughout.
Turning to `Cc1cc(C2(c3cc(C)c(O)c(C(=O)O)c3)OS(=O)(=O)c3ccccc32)cc(C(=O)O)c1O`, the TGI in the assay with SK-MEL-5 melanoma, with T-47D breast, in the assay on OVCAR-4 ovarian, in the assay on A549 NSCLC, in the assay with DU-145 prostate and in the assay with SK-MEL-2 melanoma was > 100 µM throughout. Besides, the TGI with OVCAR-5 ovarian, with SF-539 CNS, in the assay with RPMI-8226 leukemia, in the assay on PC-3 prostate, in the assay with SW-620 colon and in the assay with SNB-19 CNS was > 100 µM in each case. For the same compound, the TGI in the assay on BT-549 breast, in the assay with OVCAR-3 ovarian, with SF-268 CNS, with MALME-3M melanoma, with CAKI-1 renal and with NCI/ADR-RES ovarian was > 100 µM throughout. In addition, the TGI in the assay with HS 578T breast and with LOX IMVI melanoma was > 100 µM throughout.
In the case of `CN(C)c1ccc(/C=C/c2cc[n+](C)c3ccccc23)cc1`, the TGI in the assay with SK-MEL-5 melanoma was 6.21 µM; in the assay with T-47D breast, 16.6 µM; in the assay on OVCAR-4 ovarian it was 21.4 µM; with A549 NSCLC, > 90.8 µM; in the assay on DU-145 prostate it was 52.2 µM; in the assay with SK-MEL-2 melanoma it was 6.37 µM. Moreover, the TGI in the assay with OVCAR-5 ovarian is 24.9 µM; in the assay on SF-539 CNS it was 18.7 µM; with RPMI-8226 leukemia, 21.5 µM; in the assay on PC-3 prostate, 8.72 µM; in the assay on SW-620 colon, 12.9 µM; with SNB-19 CNS it was 16.5 µM. For the same compound, the TGI with BT-549 breast is 8.44 µM; in the assay with OVCAR-3 ovarian it was 13.5 µM; in the assay with SF-268 CNS it was 21.5 µM; with MALME-3M melanoma, 17.1 µM; in the assay on CAKI-1 renal, 12.2 µM; in the assay with NCI/ADR-RES ovarian, > 100 µM. Further, the TGI was 14 µM in the assay on HS 578T breast and 14.1 µM in the assay on LOX IMVI melanoma.
Take `CO[C@@H](c1ccccc1)[C@H](O)[C@](O)(c1ccccc1)P(=O)(OC)OC`: the TGI with SK-MEL-5 melanoma, with T-47D breast, in the assay with OVCAR-4 ovarian, with A549 NSCLC, with DU-145 prostate and in the assay on SK-MEL-2 melanoma was > 100 µM each time. For the same compound, the TGI with OVCAR-5 ovarian, in the assay with SF-539 CNS, in the assay on RPMI-8226 leukemia, in the assay with PC-3 prostate, in the assay with SW-620 colon and in the assay with SNB-19 CNS was > 100 µM throughout. Moreover, the TGI in the assay on BT-549 breast, in the assay on OVCAR-3 ovarian, in the assay with SF-268 CNS, in the assay on MALME-3M melanoma, in the assay with CAKI-1 renal and in the assay on NCI/ADR-RES ovarian was > 100 µM each time. The TGI in the assay with HS 578T breast and with LOX IMVI melanoma was > 100 µM throughout.
On to `Cc1nnc2sc(-c3ccc(-c4ccccc4Cl)o3)nn12`, for which the TGI was 61.3 µM in the assay with SK-MEL-5 melanoma; 91.6 µM with T-47D breast; > 100 µM in the assay on OVCAR-4 ovarian; > 100 µM with A549 NSCLC; > 100 µM with DU-145 prostate; 86.7 µM in the assay on SK-MEL-2 melanoma. In addition, the TGI in the assay with OVCAR-5 ovarian was > 100 µM; in the assay with SF-539 CNS, 45.9 µM; with RPMI-8226 leukemia, 60 µM; with PC-3 prostate, > 100 µM; in the assay on SW-620 colon, > 100 µM; in the assay on SNB-19 CNS, > 100 µM. Moreover, the TGI was 60.3 µM with BT-549 breast; 84.7 µM with OVCAR-3 ovarian; > 100 µM in the assay with SF-268 CNS; > 100 µM with MALME-3M melanoma; > 100 µM with CAKI-1 renal; 52.8 µM with NCI/ADR-RES ovarian. The TGI in the assay on HS 578T breast was > 100 µM; in the assay on LOX IMVI melanoma, 53.2 µM.
In the case of `CSc1c(C(=O)Nc2ccc(Cl)cc2)c(N)[nH]c(=O)c1C#N`, the TGI is 64.3 µM in the assay with SK-MEL-5 melanoma; > 83.3 µM with T-47D breast; > 100 µM in the assay with OVCAR-4 ovarian; > 100 µM in the assay on A549 NSCLC; > 100 µM in the assay with DU-145 prostate; 32.2 µM in the assay on SK-MEL-2 melanoma. The TGI in the assay with OVCAR-5 ovarian is > 89.2 µM; in the assay with SF-539 CNS, 68.9 µM; in the assay on RPMI-8226 leukemia, > 100 µM; in the assay with PC-3 prostate, 47.7 µM; in the assay on SW-620 colon, > 100 µM; with SNB-19 CNS, > 100 µM. Further, the TGI with BT-549 breast was > 91.1 µM; in the assay with OVCAR-3 ovarian, 63 µM; with SF-268 CNS, > 100 µM; with MALME-3M melanoma, > 100 µM; with CAKI-1 renal it was > 61.1 µM; with NCI/ADR-RES ovarian, > 76.5 µM. In addition, the TGI is > 100 µM with HS 578T breast and > 25.8 µM with LOX IMVI melanoma.
Take `Cc1ccc(-c2n[nH]c(=O)[nH]2)cc1`: the TGI in the assay with SK-MEL-5 melanoma was > 100 µM; in the assay on T-47D breast it was > 46.4 µM; with OVCAR-4 ovarian, > 100 µM; in the assay with A549 NSCLC it was > 100 µM; with DU-145 prostate, > 100 µM; with SK-MEL-2 melanoma, > 100 µM. Also, the TGI in the assay with OVCAR-5 ovarian, in the assay on SF-539 CNS, with RPMI-8226 leukemia, with PC-3 prostate, with SW-620 colon and with SNB-19 CNS was > 100 µM each time. Moreover, the TGI in the assay on BT-549 breast, with OVCAR-3 ovarian, with SF-268 CNS, with MALME-3M melanoma, in the assay with CAKI-1 renal and in the assay on NCI/ADR-RES ovarian was > 100 µM in each case. Further, the TGI in the assay with HS 578T breast and in the assay on LOX IMVI melanoma was > 100 µM each time.
